Patent publication US4242335A, “Novel 17α-aryl-steroids” (Roussel Uclaf, priority 1977, dated 1980)

Assays:
[1] = target: T1, prostatic reception of testosterone (Rattus norvegicus, UniProt P15207); assay: Androgenic activity by hormonal receptor method (displacement of tritiated product R in rat prostate cytosol); format: binding; conditions: for relative affinity of the test product (ARL), androgenic: castrated male rat prostate cytosol, 0° C., 2 hours, testosterone = 100; for affinity for prostatic reception of testosterone (in words) / androgenic activity (in words): conclusion from Table II
T1 construct: The prostate was recovered from male rats castrated 24 hours earlier and was homogenized; from tissue; host or cells: prostate cytosol (105,000 g supernatant) of male rats castrated 24 hours earlier
T1 sequence (P15207 1-902): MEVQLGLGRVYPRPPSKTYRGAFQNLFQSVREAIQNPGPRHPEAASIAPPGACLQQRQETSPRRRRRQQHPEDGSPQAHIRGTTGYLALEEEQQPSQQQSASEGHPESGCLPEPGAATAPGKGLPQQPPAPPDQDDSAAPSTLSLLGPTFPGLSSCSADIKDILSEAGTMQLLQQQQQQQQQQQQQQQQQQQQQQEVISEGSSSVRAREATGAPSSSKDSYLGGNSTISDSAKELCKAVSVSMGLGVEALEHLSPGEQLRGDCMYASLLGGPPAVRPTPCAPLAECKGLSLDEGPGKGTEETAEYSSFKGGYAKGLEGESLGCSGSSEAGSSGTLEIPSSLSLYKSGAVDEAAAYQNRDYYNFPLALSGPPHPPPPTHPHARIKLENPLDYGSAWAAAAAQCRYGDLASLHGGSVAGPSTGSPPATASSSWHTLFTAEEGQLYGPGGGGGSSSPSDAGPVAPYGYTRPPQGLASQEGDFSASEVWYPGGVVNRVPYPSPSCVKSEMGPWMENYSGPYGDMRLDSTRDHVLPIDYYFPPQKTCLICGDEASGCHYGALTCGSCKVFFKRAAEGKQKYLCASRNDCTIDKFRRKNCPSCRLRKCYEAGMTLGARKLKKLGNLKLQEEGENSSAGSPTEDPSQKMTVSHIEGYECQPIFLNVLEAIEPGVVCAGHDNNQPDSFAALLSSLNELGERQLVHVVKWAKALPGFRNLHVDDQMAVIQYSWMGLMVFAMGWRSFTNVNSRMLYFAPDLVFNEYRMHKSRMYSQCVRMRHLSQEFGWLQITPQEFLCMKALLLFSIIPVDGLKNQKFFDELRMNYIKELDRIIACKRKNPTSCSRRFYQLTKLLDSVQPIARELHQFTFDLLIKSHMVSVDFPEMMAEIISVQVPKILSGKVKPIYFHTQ
Protocol: This test also used the method of Raynaud et al discussed above. The prostate was recovered from male rats castrated 24 hours earlier and was homogenized in a buffer containing 10 mM of tromethamine and 0.25 M of saccharose and sufficient hydrochloric acid for a pH of 7.4 The homogenate was centrifuged at 105,000 g for one hour and the surnageant liquid or cytosol was adjusted to a dilution of 1/5 (weight/volume).
The radioactivity of the tied tritiated product was determined after 2 hours by absorption technique on carbondextran (1.25%-0.625%). […] B/T max. is the percentage of tied tritiated product R when the product is not added and B/T min. is the percentage of tied tritiated product R when the maximum amount of cold product R is added.

[2] = tested on: proliferation of endometric lacework (uterus); assay: In vivo progestomimetic activity, Clauberg test on immature rabbits; set-up: species or system rabbit; conditions: for progestomimetic activity in vivo (in words): compared with ethynylnortestosterone, Table III; for endometrial proliferation, MacPhail Units: subcutaneous, 5 days
Protocol: The progestomimetic activity of products A, B and C were determined by the Clauberg test on immature rabbits previously sensibilized by subcutaneous administration of estradiol for 5 days at a daily dose of 5 μg. The test products were used in solution in olive oil containing 5% of benzyl alcohol and were subcutaneously administered for 5 days at different doses. The animals were killed on the 6th day and the uterus was removed to determine the proliferation of endometric lacework which is characteristic of progestomimetic activity. The results were compared with ethynylnortesterone administered in the same method in the same solvent. The results were expressed in MacPhail units in Table III.

[3] = target: T2, uterine reception of progesterone (Oryctolagus cuniculus, UniProt P06186); assay: Progestomimetic activity by hormonal receptor method (displacement of tritiated product R in rabbit uterus cytosol); format: binding; conditions: for progestomimetic activity (in words): conclusion from Table I; for relative affinity of the test product (ARL), progestomimetic: rabbit uterus cytosol, 0° C., 2 hours, progesterone = 100; for activity weaker than progesterone: from Table I
T2 construct: from tissue; host or cells: uterus cytosol (105,000 g supernatant) of immature rabbits primed with estradiol
T2 sequence (P06186 1-930): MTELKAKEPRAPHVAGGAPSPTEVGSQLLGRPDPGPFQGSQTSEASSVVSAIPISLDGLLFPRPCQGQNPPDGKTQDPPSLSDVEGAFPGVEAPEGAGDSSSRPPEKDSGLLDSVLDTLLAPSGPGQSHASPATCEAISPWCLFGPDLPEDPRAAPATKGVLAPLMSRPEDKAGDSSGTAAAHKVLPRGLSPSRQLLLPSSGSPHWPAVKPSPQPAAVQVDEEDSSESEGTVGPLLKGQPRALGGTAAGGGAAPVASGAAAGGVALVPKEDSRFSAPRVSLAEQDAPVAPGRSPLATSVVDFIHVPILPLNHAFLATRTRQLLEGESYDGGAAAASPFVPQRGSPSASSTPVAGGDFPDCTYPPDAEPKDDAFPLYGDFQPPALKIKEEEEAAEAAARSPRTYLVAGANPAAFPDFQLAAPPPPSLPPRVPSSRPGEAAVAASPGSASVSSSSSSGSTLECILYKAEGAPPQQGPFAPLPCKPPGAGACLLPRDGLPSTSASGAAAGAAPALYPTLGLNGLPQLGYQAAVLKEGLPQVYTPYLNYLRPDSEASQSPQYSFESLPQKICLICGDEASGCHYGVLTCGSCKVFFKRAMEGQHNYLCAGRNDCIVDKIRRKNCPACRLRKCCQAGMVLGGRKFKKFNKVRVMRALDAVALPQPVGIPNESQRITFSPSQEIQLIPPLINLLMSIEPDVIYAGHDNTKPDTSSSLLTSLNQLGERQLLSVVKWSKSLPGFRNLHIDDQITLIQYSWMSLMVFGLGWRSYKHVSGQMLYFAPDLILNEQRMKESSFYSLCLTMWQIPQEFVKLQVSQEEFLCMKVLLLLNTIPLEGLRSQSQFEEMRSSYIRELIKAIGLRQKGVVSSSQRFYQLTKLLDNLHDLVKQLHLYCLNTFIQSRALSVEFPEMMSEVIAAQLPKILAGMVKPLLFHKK
Protocol: The progestomimetic activity was determined by the hormonal receptor method of Raynaud et al [J. Ster. Biochem., Vol. 6 (1975), p-615-622 and Physiology and Genetics of Reproduction, part A (1975), p. 143-160]. Immature rabbits received subcutaneously 25γ of estradiol and 5 days later, the animals were sacrificed and the uterus was removed and homogenized in a buffered solution of 10 mM of tromethamine, 0.25 M of saccharose and a pH of 7.4 with hydrochloric acid. The homogenate was centrifuged at 105,000 g during one hour and the surnageant or cytosol was adjusted to a dilution of 1/50 (weight/volume). The resulting solution was incubated at 0° C. for 2 hours in tubes with the same volume of cytosol with a fixed concentration of tritiated 17,21-dimethyl-19-nor-Δ^4,9 -pregnadiene-3-20-dione (designated as tritiated Product R) in the presence or not of an increasing concentration of radioinactive 17,21-dimethyl-19-nor-Δ^4,9 -pregnadiene-3,20-dione (designated as cold product R) or progesterone or the test product. The radioactivity of the tritiated product R was determined after 2 hours by the technique of adsorption on carbon-dextran (1.25-0.625%). The curves representing the percentage of tritiated product R as a function of the log of the concentration, of cold product R, of progresterone or the test products and the I50 straight line parallel to the axis of the abcissess and ordinates [formula] were ploted. B/T max. is the percentage of tied tritiated product R when the product is not added and B/T min. is the percentage of tied tritiated product R when the maximum amount of cold product R is added. The intersections of these I50 straight lines and the curves permit the determination of the values: CP and CX: CP - concentration of cold progesterone which inhibits by 50% the fixation of the tritiated product R and CX - concentration of test product which inhibits by 50% the fixation of the tritiated product R. The relative affinity of the test product (ARL) was determined by the formula [formula] and the results are reported in Table I.

SMILES | relative affinity of the test product (ARL), androgenic [1] | affinity for prostatic reception of testosterone (in words) [1] | androgenic activity (in words) [1] | progestomimetic activity in vivo (in words) [2] | endometrial proliferation, MacPhail Units ([2]; dose 100 γ) [MacPhail Units] | endometrial proliferation, MacPhail Units ([2]; dose 500 γ) [MacPhail Units] | endometrial proliferation, MacPhail Units ([2]; dose 2500 γ) [MacPhail Units] | affinity for specific uterine reception of progesterone (in words) ([3]; compared with progesterone) | progestomimetic activity (in words) [3] | relative affinity of the test product (ARL), progestomimetic [3] | endometrial proliferation, MacPhail Units ([2]; dose 1 mg) [MacPhail Units] | endometrial proliferation, MacPhail Units ([2]; dose 2 mg) [MacPhail Units] | endometrial proliferation, MacPhail Units ([2]; dose 200 γ) [MacPhail Units] | activity weaker than progesterone ([3]; compared with progesterone)
C[C@]12CC[C@H]3[C@@H](CCC4=CC(=O)CC[C@@H]43)[C@@H]1CC[C@@]2(O)c1ccccc1 [Product A, 17α-phenyl-Δ^4-estrene-17β-ol-3-one] | 0.3 | practically devoid of an affinity | devoid of adrogenic activity | progestomimetic activity greater than ethynylnortestosterone | 2 | 2.7 | 3 | comparable to that of progesterone | progestomimetics | 80 | – | – | – | –
C[C@]12CCC3=C4CCC(=O)C=C4CC[C@H]3[C@@H]1CC[C@@]2(O)c1ccccc1 [Product B, 17α-phenyl-Δ^4,9-estradiene-17β-ol-3-one] | 0.2 | practically devoid of an affinity | devoid of adrogenic activity | progestomimetic activity greater than ethynylnortestosterone | – | – | – | – | progestomimetics | 37 | 2.8 | 3.0 | 1 | about 3 times
C[C@]12C=CC3=C4CCC(=O)C=C4CC[C@H]3[C@@H]1CC[C@@]2(O)c1ccccc1 [Product C, 17α-phenyl-Δ^4,9,11-estratriene-17β-ol-3-one] | ≤ 0.1 | practically devoid of an affinity | devoid of adrogenic activity | about the same order of activity as ethynylnortestosterone | – | – | – | – | progestomimetics | 27 | 1.8 | 2.9 | 0.8 | about 3 times
C#C[C@]1(O)CC[C@H]2[C@@H]3CCC4=CC(=O)CC[C@@H]4[C@H]3CC[C@@]21C [ethynylnortestosterone, reference compound] | – | – | – | – | 1.2 | 1.5 | 2 | – | – | – | – | – | – | –
